Assays:
[1] = target: T1, HBO1 (Homo sapiens, UniProt O95251); assay: isothermal titration calorimetry (supported by in vitro histone acetylation assay with purified HBO1); assay type: binding
T1 construct: gene KAT7; HBO1 (336-611), acyltransferase/catalytic domain, purified from E. coli

[2] = target: T1, HBO1; assay: isothermal titration calorimetry (supported by in vitro histone lactylation assay with purified HBO1); assay type: binding

T1 sequence (O95251 336-611): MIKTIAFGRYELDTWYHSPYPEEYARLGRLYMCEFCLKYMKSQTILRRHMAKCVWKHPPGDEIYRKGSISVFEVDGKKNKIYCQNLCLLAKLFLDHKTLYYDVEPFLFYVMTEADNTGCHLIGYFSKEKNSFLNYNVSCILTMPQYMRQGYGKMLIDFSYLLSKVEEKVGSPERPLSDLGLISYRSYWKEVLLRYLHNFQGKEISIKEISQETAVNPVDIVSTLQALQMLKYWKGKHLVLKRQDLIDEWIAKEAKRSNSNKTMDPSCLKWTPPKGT

| Kd [1] [µM] | Kd [2] [µM] | SMILES |
| --- | --- | --- |
| 1.46 |  | CC(=O)SCCNC(=O)CCNC(=O)[C@H](O)C(C)(C)COP(=O)(O)OP(=O)(O)OC[C@H]1O[C@@H](n2cnc3c(N)ncnc32)[C@H](O)[C@@H]1OP(=O)(O)O [acetyl-CoA] |
|  | 0.52 | C[C@H](O)C(=O)SCCNC(=O)CCNC(=O)[C@H](O)C(C)(C)COP(=O)(O)OP(=O)(O)OC[C@H]1O[C@@H](n2cnc3c(N)ncnc32)[C@H](O)[C@@H]1OP(=O)(O)O [lactyl-CoA] |
